The text below walks through data of publication PMC7880690, “Chemical genetics and proteome-wide site mapping reveal cysteine MARylation by PARP-7 on immune-relevant protein targets” (eLife, 2021).

The structures appear in SMILES notation.

One assay addresses T1, IG-PARP-7 (I631G PARP-7) (Homo sapiens, UniProt Q7Z3E1, I631G).
T1 construct: expressed in transfected cells; host or cells: HEK 293T (lysate)
The assay can be described thus: Labeling by orthogonal NAD+ analogs in HEK 293T lysates expressing GFP-IG-PARP-7 (click with biotin-azide, Streptavidin-HRP). The conditions noted are these: HEK 293 T cell lysates, 100 µM NAD+ analog. Type of assay: biochemical. The text has this: Identifying the protein targets of PARP-7 is a critical first step toward unraveling its function in cells. In previous work we have developed an engineered enzyme—modified substrate strategy for identifying relevant targets of individual PARP family members ([Carter-O'Connell et al., 2014]; [Carter-O'Connell et al., 2016]; [Carter-O'Connell and Cohen, 2015]; [Carter-O'Connell et al., 2018]). This chemical genetic (CG) method uses engineered PARPs and an orthogonal NAD^+ analogue that contains a clickable handle (e.g. an alkyne) that is located at the N-6 position of the adenine ring (5-Bn-6-a-NAD^+). […] Importantly, 5-Bn-6-a-NAD^+ is not used by wild-type (WT) PARPs and in this way is orthogonal to native NAD^+. […] We therefore sought a new orthogonal NAD^+ analogue that would serve as an efficient substrate for floor position engineered PARP-7, I631G PARP-7 (IG-PARP-7) (Figure 1a).
Figure 1. A chemical genetic strategy for identifying the direct MARylation targets of PARP-7. (a) Schematic of chemical genetic approach for identifying direct targets of PARP-7. (b) Crystal structure of human PARP1 bound to the non-hydrolyzable NAD^+ analog benzamide adenine dinucleotide (BAD). PDB: 6bhv. […] Following copper-catalyzed click chemistry with biotin-azide, proteins were resolved by SDS-PAGE and biotinylated proteins were detected by Western blot detection using Streptavidin-HRP. […]

A further assay addresses PARP2FL (Homo sapiens, UniProt Q9UGN5). The assay can be described thus: ADP-ribosylation plate assay, PARP2FL.

T1 sequence (Q7Z3E1 whole entry I631G): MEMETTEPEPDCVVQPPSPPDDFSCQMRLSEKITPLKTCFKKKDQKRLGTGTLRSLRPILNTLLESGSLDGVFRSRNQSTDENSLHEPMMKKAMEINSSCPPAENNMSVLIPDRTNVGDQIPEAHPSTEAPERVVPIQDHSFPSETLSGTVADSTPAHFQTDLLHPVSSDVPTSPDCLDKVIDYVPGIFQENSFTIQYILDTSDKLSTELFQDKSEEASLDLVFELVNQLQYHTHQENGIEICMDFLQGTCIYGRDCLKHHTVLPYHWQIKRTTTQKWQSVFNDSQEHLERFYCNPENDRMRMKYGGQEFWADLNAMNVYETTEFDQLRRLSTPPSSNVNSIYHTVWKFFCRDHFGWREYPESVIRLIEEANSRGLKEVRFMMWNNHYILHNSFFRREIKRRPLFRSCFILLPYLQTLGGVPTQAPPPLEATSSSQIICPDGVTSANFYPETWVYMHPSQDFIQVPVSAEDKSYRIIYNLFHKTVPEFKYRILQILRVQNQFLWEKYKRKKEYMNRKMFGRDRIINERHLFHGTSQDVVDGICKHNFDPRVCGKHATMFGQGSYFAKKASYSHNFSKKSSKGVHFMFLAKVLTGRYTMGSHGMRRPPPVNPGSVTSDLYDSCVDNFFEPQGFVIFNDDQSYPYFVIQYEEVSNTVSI
Sequence of PARP2FL (Q9UGN5 whole entry): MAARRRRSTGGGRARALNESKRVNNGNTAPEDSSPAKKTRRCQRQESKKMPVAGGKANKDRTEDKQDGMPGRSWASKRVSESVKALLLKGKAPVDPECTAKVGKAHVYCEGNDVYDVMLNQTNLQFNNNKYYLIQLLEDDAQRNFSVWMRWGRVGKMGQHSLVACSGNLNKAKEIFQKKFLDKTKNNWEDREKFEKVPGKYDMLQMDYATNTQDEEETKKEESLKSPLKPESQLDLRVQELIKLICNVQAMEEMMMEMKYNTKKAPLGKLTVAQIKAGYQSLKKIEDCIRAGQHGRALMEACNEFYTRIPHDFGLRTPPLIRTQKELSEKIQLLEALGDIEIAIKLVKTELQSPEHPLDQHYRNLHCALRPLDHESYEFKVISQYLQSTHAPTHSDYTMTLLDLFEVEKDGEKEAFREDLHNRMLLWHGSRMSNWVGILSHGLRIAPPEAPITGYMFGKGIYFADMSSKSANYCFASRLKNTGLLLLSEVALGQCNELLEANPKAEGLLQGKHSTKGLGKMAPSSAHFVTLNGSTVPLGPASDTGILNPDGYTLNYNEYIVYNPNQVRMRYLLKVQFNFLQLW

Consider `C#Cc1nc(N)c2ncn(C3OC(COP(=O)(O)OP(=O)([O-])OCC4OC([n+]5cc(Cc6ccccc6)cc(C(N)=O)c5)C(O)C4O)C(O)C3O)c2n1` (centres unmarked) [5-Bn-2-e-NAD^+, 5-benzyl-2-ethynyl-NAD^+], for which, at IG-PARP-7 (I631G PARP-7), the “substrate for floor position engineered PARP-7 (IG-PARP-7)” value is on record as “much better substrate”. Regarding `N#Cc1ccc(N2CCN(C(=O)c3cc(Cc4n[nH]c(=O)c5ccccc45)ccc3F)CC2)nc1` [Phthal01, 6-(4-(2-fluoro-5-((4-oxo-3,4-dihydrophthalazin-1-yl)methyl)benzoyl)piperazin-1-yl)nicotinonitrile], on PARP2FL, the half-inhibitory concentration (IC50) came to 28 nM.

The term IC50 denotes the point on the concentration scale where inhibition reaches its midpoint.
